From doi:10.1101/2020.01.20.912972v1 (biorxiv, 2020)

How the values were obtained:
[1] = target: TrpR (tryptophan repressor; TrpR-Wt) (Escherichia coli, UniProt P0A881); assay: isothermal titration calorimetry; format: binding
[2] = target: TrpR (tryptophan repressor; TrpR-Wt) (Escherichia coli, UniProt P0A881, S88Y); assay: isothermal titration calorimetry; format: binding

Compound | Kd [1] [µM] | Kd [2] [µM]
Cc1ccc2[nH]cc(CC(N)C(=O)O)c2c1 (racemic) [5-Met-TRP, 5-Methyl-DL-Tryptophan] | 62.2 ± 15.6 | 
O=C(O)Cc1c[nH]c2ccccc12 [IAA, Indole-3-acetic acid] | 162 ± 14 | 29.3 ± 2.08
O=C(O)CCCc1c[nH]c2ccccc12 [IBA, Indole-3-butyric acid] | 32.7 ± 0.88 | 10.4 ± 1.25
O=C(O)CCc1c[nH]c2ccccc12 [IPA, Indole-3-propionic acid] | 33.4 ± 1.16 | 7.49 ± 0.91
N[C@@H](Cc1c[nH]c2ccccc12)C(=O)O [TRP, Tryptophan] | 40.3 ± 2.35 | 
